# Measurements reported in patent publication US12264142B2, “Heterocyclic compounds” (FLORATEK PHARMA SA, priority 2019, dated 2025).
# Assays:
# [1] = test system: C. elegans gene expression; assay: Whole transcriptome analysis (RNA-Seq) of treated worms; format: in vivo
# Method: To determine the mode of action for SND302 and SND303 the gene transcription in young and aged adults was analyzed by RNA-Seq (whole transcription analysis). For each condition, >300 worms were treated in parallel with the lifespan assay and maintained under identical conditions.
# Differential gene expression was performed with EdgeR using […] likelihood ratio tests based on fitting linear models. The likelihood ratios were used to determine the p-values which were subsequently corrected for using the BH false discovery rate (fdr) method. Eventually, differential expressed genes were defined as genes with fdr-corrected p-value of 0.05 or lower, as well as a change in expression of at least 2-fold in a given between-group comparison. Compounds SND302 and SND303 were compared against Urolithin and Vehicle control. […] In general the transcriptomic data corroborates a differential effect for SND303 when compared to SND302 (FIGS. 1-4).
# Worms for RNA-Seq were split from the same synchronized pool of worms for the lifespan with each of the three replicates being maintained and treated in parallel. More than 150 worms per replicate were harvested, cleaned by filtration, and frozen at −80° in Trizol. To extract RNA, samples were thawed, vigorously vortexed, and processed using the Direct-zol RNA Miniprep Kit (Zymo Research). All samples exceeded our threshold for RNA quantity and quality. RNA samples were submitted to Novogene Co. Ltd and subjected to more stringent QC, being tested on a Qubit for concentration and run on an agarose gel and on the Agilent […] assess RNA quality and integrity. […] The total RNA was then enriched for poly-mRNA using oligo(dT) paramagnetic beads. DNA libraries were then constructed from this input mRNA using the NEBNext Ultra™ II RNA Library Prep Kit.
# These libraries were then further tested by the Qubit for concentration and the Agilent 2100 for library size distribution and quality. In order to properly pool the libraries and load them onto sequencing lanes to ensure the correct number of reads per sample, an even more precise quantification of the library was done via qPCR, and the samples were loaded onto the NovaSeq 6000 platform for a paired-end sequencing run of 150 bp for each end (PE150). The loading concentrations were designed to obtain at least 6.0 Gb (which is the number of billion bases of raw data, determined by the number of reads multiplied by the length of each read). A mean of 7.4 Gb (median 7.3 Gb) raw sequencing data was obtained across all samples, with a minimum of 6.3 Gb and a maximum of 8.5 Gb raw data. Sequencing run data quality control was performed both by Novogene and by an in-house analysis. The raw data set was analyzed for parameters such as the distribution of base quality along the length of the sequencing read, the distribution of error rate along the length of the sequencing read. Reads containing adapter sequences, with N>10% (where N means “base cannot be determined”) and with a low quality (Qscore<=5) for 50% or more of its total bases were removed.
# C. elegans = assay: Life span assay on Automated Lifespan Machine (SND302, SND303); format: in vivo; conditions: for Mean lifespan: area under the survival curve; for Age in days at 25% mortality / Age in days at 50% mortality / Age in days at 75% mortality / Age in days at 90% mortality / Age in days at 100% mortality: SND302, SND303 25 μM, Uro A, Resveratrol 50 μM; for Effect on lifespan: in words, compared to control
# Method: An additional life span assay using an adapted standard protocol employed and published by the C. elegans Intervention Testing Program, or CITP was employed to assess the activity of SND302 and SND303. A positive and a negative control were included in the assay. In a preliminary experiment the optimal conditions for the life span analysis was determined and the stress level induced by the compounds as well as toxicity were measured.
# For the life span assay over 300 worms per conditions were used and the study was conducted by InVivoBiosystems (USA) using an Automated Lifespan Machine (ALM) with proprietary modifications to improve temperature stability and image acquisition.
# To prevent chemical modification or metabolism of the test article by the food bacteria, worms were fed on a lawn of UV-killed bacteria (UV-i bacteria). An overnight culture of E. coli strain WP-2 was pelleted, washed, filtered, and irradiated. A suspension of UV-i bacteria was spotted on NGM agar containing Streptomycin to inhibit growth of contaminating bacteria. The quantity and distribution of food bacteria was calibrated to ensure adequate access to food for the duration of assay while maintaining visibility of the worms.
# Test article was delivered to worms by a method compatible with and previously validated on the Automated Lifespan Machine and used by the CIT [Lucanic, et. al. Impact of genetic background and experimental reproducibility on identifying chemical compounds with robust longevity effects. Nature Communications 8 (2017)]. A 200× stock solution was freshly prepared in DMSO immediately before application. 40 μl of DMSO stock (0.5% plate volume) was applied to the plate to coat the food bacteria and then chased immediately with 160 μl water to uniformly distribute a fine precipitate across the surface of the plate. This functioned to provide reservoirs of compound in food, agar, and agar surface.
# The ALM used by InVivoBiosystems is based on the Caenorhabditis elegans lifespan machine published by Stroustrup, N. et al. The Caenorhabditis elegans Lifespan Machine. N at Methods 10, 665-670 (2013), with proprietary modifications to improve temperature stability and image acquisition. The scanner unit consists of a modified EPSON V850 and images are processed and analyzed using the ALM software 7. The machine time-of-death calls are trained and validated using the “storyboarding” feature of the ALM software.
# The lifespan assay was designed and performed according to published and validated methods, Amrit, F. R. G., Ratnappan, R., Keith, S. A. & Ghazi, A. The C. elegans lifespan assay toolkit. Methods 68, 465-475 (2014); Lucanic, et. al. Manual Lifespan Assay Standard Operating Procedure. Caenorhabditis Intervention Testing Program https://figshare.com/articles/7_CITP_SOP_Manual_Lifespan_Assay/9738197/1. using a modified version of the Automated Lifespan Machine. Worms were age synchronized by bleaching and eggs were plated directly onto NGM agar seeded with UV-I bacteria (Day 1, hatch). On Day 3, when the worms had reached the late L4 stage, they were transferred to dishes containing 100 μM 5-Fluorodeoxyuridine (FUdR) to suppress progeny. On day 5, the worms were washed off the dishes and 30-50 worms were plated on each scanner dish. Plates were immobilized inverted on the bed of an Automated Lifespan Machine which scanned two images per hour of the plates continuously for the next 40 days.
# Time of death calls exported from the ALM software were analyzed and plotted using the Lifelines software package developed by Davidson-Pilon, (2019). lifelines: survival analysis in Python. Journal of Open Source Software, 4(40), 1317.
# aging-related pathways = assay: Pathway transcriptional profile score analysis; format: in vivo, C. elegans
# Excerpt: In the second approach, the transcriptomic profile of worms treated with SND303 compound was compared with published transcriptomes in which specific aging-related pathways have been manipulated. In contrast with the first approach, this blindly scores how the data fits with published transcriptomic signatures of aging.
# Frequently cited and relevant studies analyzing the transcriptomic signatures of aging-related pathways in C. elegans were selected for this analysis. […] To generate a transcriptional profile score, the log fold change for each key gene in each pair of comparison (e.g. SND303 vs. negative control) is multiplied by a direction-specific factor and assigned a positive or negative value based on whether the change is in the same direction as reported in the literature. All the gene scores for a given pathway are summed up to produce one aggregated score per pathway for each pair of comparison.
# [2] = Day 10, against negative control
smiles,measurement,setting,value
CC(C)NC(=O)Oc1ccc2c(c1)oc(=O)c1cc(OC(=O)NC(C)C)ccc12 [SND303],Significant differentially-expressed genes,"[1]; Day 3, compared to the controls (Vehicle and Urolithin A), 25 μM",2-3 genes
same,Expression of gene C50F7.5,[1]; Day 10,significantly upregulated
same,Most significant differentially-expressed genes,"[1]; Day 10, compared to vehicle",7 genes
same,Significant differentially-expressed genes,"[1]; Day 10, compared with the UroA control",3 genes
same,Median lifespan,C. elegans; 25 μM,29.0 days
same,Mean lifespan,C. elegans; 25 μM,27.6 days
same,Age in days at 25% mortality,C. elegans,25 days
same,Age in days at 50% mortality,C. elegans,29.0 days
same,Age in days at 75% mortality,C. elegans,31.8 days
same,Age in days at 90% mortality,C. elegans,33.9 days
same,Age in days at 100% mortality,C. elegans,39.9 days
same,Effect on lifespan,C. elegans,clear and statistically significant lifespan extension
same,"Transcriptional profile score, overall","aging-related pathways; Day 3, against negative control",little deviation from the control
same,"Transcriptional profile score, Oxidative stress response",aging-related pathways; [2],strong negative score
same,"Transcriptional profile score, overall",aging-related pathways; [2],greatest overall profile contrast with control
"O=c1oc2cc(O)ccc2c2ccc(O)cc12 [Urolithin A, reference compound]",Differentially-expressed genes,[1]; Urolithin A compared with the vehicle control,no differentially-expressed genes
same,Median lifespan,C. elegans; 50 μM,27.8 days
same,Mean lifespan,C. elegans; 50 μM,27.0 days
same,Age in days at 25% mortality,C. elegans,23.8 days
same,Age in days at 50% mortality,C. elegans,27.8 days
same,Age in days at 75% mortality,C. elegans,30.2 days
same,Age in days at 90% mortality,C. elegans,32.3 days
same,Age in days at 100% mortality,C. elegans,37.7 days
same,Effect on lifespan,C. elegans,did not produce a significant change in lifespan
